Assay results as given in article PMC11544713, “The Application of Untargeted Metabolomic Approaches for the Search of Common Bioavailable Metabolites in Human Plasma Samples from Lippia citriodora and Olea europaea Extracts” (Journal of Agricultural and Food Chemistry, 2024).

Test: Acute intervention: nutrikinetics of plasma metabolites after ingestion of O. europaea extract (untargeted HPLC-ESI-QTOF-MS)
Method: A total of 25 healthy individuals participated, with an average age of 27 ± 9 years and a mean body mass index (BMI) of 23 ± 3 kg/m^2. None of the participants were taking any medications or nutritional supplements nor did they have any chronic diseases or gastrointestinal issues. The sample size was established based on findings from previous bioavailability research.[14] All participants provided informed consent before participating in the study.
The intervention study was carried out at Miguel Hernández University. Following an overnight fast, the volunteers were categorized into the subsequent groups: a subgroup to evaluate the LC leaf extract (n = 8), another for the OE leaf extract (n = 8), and the placebo subgroup (n = 9). This was a double-blind study, in which sample collection and treatment were carried out uniformly across all three subgroups.
Water was provided ad libitum. Prior to the ingestion of the capsule, a nurse inserted a cannula into the ulnar vein of each volunteer’s nondominant arm, and blood samples were drawn into EDTA-coated tubes at baseline (t = 0). Blood samples were then collected at 0.5, 1, 2, 4, 6, 8, and 10 h after the consumption of the 500 mg capsule. Plasma was separated through centrifugation (10 min at 3000 rpm and 4 °C) and stored at −80 °C until further analysis.
Plasma samples were initially treated using a mixture of methanol and ethanol (50:50; v:v) to remove proteins, following previously reported protocols.[19] During the sample treatment, pooled quality controls (pooled-QC) were prepared by combining equal aliquots from each sample. These QC samples were processed by using the same protocols as the experimental biological samples.
A reversed-phase analytical C18 column (Agilent Zorbax Eclipse Plus, 1.8 μm, 4.6 × 150 mm^2) with a protective cartridge with the same packing was used. MS data were acquired in negative ionization mode, operating in full scan across a mass-to-charge ratio (m/z) range of 50–1700. The analytical method used was adapted from that described by Villegas-Aguilar et al.[19]
Metabolite nutrikinetics were studied using PKSolver, an add-in program for pharmacokinetic data analysis in Microsoft Excel. The time to reach the maximum concentration (observed Tmax) was calculated for each significant metabolite. As an untargeted metabolomic approach was used to detect the circulating metabolites, these were not quantified. Therefore, the maximum concentration (Cmax) and area under the curve (AUC) parameters were calculated in a relative way by using the deconvoluted chromatographic areas. […] Statistical differences were determined by unpaired t tests. All p values less than 0.05 were considered statistically significant.

[1] = 0.5 h after O. europaea extract
[2] = human plasma, 500 mg capsule of O. europaea (OE) extract, oral, mean ± SD

COc1cc(C(=O)O)cc(OC)c1OC [eudesmic acid]
mean chromatographic area in plasma, T0.5 [1]: 34 | mean chromatographic area in plasma, T1 (1 h after O. europaea extract): 120 | mean chromatographic area in plasma, T2 (2 h after O. europaea extract): 28 | mean chromatographic area in plasma, T4 (4 h after O. europaea extract): 0 | mean chromatographic area in plasma, T6 (6 h after O. europaea extract): 0 | mean chromatographic area in plasma, T8 (8 h after O. europaea extract): 0 | mean chromatographic area in plasma, T10 (10 h after O. europaea extract): 0 | Cmax: relative maximum plasma level [2]: 120 ± 27 relative chromatographic area | observed Tmax: time required to reach Cmax [2]: 1 ± 0 h

COc1cc(-c2oc3cc(O[C@@H]4O[C@@H](C)[C@H](O)[C@@H](O)[C@H]4O)cc(O)c3c(=O)c2O[C@@H]2O[C@H](CO)[C@@H](O)[C@H](O)[C@H]2O)ccc1O [isorhamnetin 3-O-glucoside-7-O-rhamnoside]
mean chromatographic area in plasma, T0.5 [1]: 34 | mean chromatographic area in plasma, T1 (1 h after O. europaea extract): 130 | mean chromatographic area in plasma, T2 (2 h after O. europaea extract): 14 | mean chromatographic area in plasma, T4 (4 h after O. europaea extract): 0 | mean chromatographic area in plasma, T6 (6 h after O. europaea extract): 0 | mean chromatographic area in plasma, T8 (8 h after O. europaea extract): 0 | mean chromatographic area in plasma, T10 (10 h after O. europaea extract): 0 | Cmax: relative maximum plasma level [2]: 133 ± 18 relative chromatographic area | observed Tmax: time required to reach Cmax [2]: 0.9 ± 0.2 h

C/C=C1/[C@H](O[C@@H]2O[C@H](CO)[C@@H](O)[C@H](O)[C@H]2O)OC=C(C(=O)OC)[C@H]1CC(=O)OCCc1ccc(O)c(O)c1 [oleuropein]
detection in plasma samples (in vivo): not detected as being significant in plasma samples

C=Cc1ccc(O)c(OC)c1 [p-vinylguaiacol]
Cmax: relative maximum plasma level (human, in vivo, po, 500 mg): 184 ± 45 relative chromatographic area | observed Tmax: time required to reach Cmax (human, in vivo, po, 500 mg): 1 ± 0 h | mean chromatographic area in plasma, T0.5 (in vivo): 90 | mean chromatographic area in plasma, T1 (in vivo): 184 | mean chromatographic area in plasma, T2 (in vivo): 83 | mean chromatographic area in plasma, T4 (in vivo): 0 | mean chromatographic area in plasma, T6 (in vivo): 0 | mean chromatographic area in plasma, T8 (in vivo): 0 | mean chromatographic area in plasma, T10 (in vivo): 0

COc1cc(C(=O)O)ccc1OC1OC(C(=O)O)C(O)C(O)C1O (centres unmarked) [vanillic acid glucuronide]
mean chromatographic area in plasma, T0.5 [1]: 0 | mean chromatographic area in plasma, T1 (1 h after O. europaea extract): 37 | mean chromatographic area in plasma, T2 (2 h after O. europaea extract): 77 | mean chromatographic area in plasma, T4 (4 h after O. europaea extract): 63 | mean chromatographic area in plasma, T6 (6 h after O. europaea extract): 44 | mean chromatographic area in plasma, T8 (8 h after O. europaea extract): 22 | mean chromatographic area in plasma, T10 (10 h after O. europaea extract): 0 | Cmax: relative maximum plasma level [2]: 111 ± 48 relative chromatographic area | observed Tmax: time required to reach Cmax [2]: 4 ± 3 h

COc1cc(C=O)ccc1O[C@@H]1O[C@H](C(=O)O)[C@@H](O)[C@H](O)[C@H]1O [vanillin glucuronide]
Cmax: relative maximum plasma level (human, in vivo, po, 500 mg): 180 ± 66 relative chromatographic area | observed Tmax: time required to reach Cmax (human, in vivo, po, 500 mg): 1 ± 0 h | mean chromatographic area in plasma, T0.5 (in vivo): 60 | mean chromatographic area in plasma, T1 (in vivo): 180 | mean chromatographic area in plasma, T2 (in vivo): 121 | mean chromatographic area in plasma, T4 (in vivo): 40 | mean chromatographic area in plasma, T6 (in vivo): 11 | mean chromatographic area in plasma, T8 (in vivo): 0 | mean chromatographic area in plasma, T10 (in vivo): 0

O=c1cc(-c2ccc(O)cc2)oc2c([C@@H]3O[C@H](CO)[C@@H](O)[C@H](O)[C@H]3O)c(O)c([C@@H]3O[C@H](CO)[C@@H](O)[C@H](O)[C@H]3O)c(O)c12 [vicenin-2]
Cmax: relative maximum plasma level (human, in vivo, po, 500 mg): 137 ± 59 relative chromatographic area | observed Tmax: time required to reach Cmax (human, in vivo, po, 500 mg): 1 ± 0 h | mean chromatographic area in plasma, T0.5 (in vivo): 34 | mean chromatographic area in plasma, T1 (in vivo): 137 | mean chromatographic area in plasma, T2 (in vivo): 46 | mean chromatographic area in plasma, T4 (in vivo): 0 | mean chromatographic area in plasma, T6 (in vivo): 0 | mean chromatographic area in plasma, T8 (in vivo): 0 | mean chromatographic area in plasma, T10 (in vivo): 0

desoxy elenolic acid
Cmax: relative maximum plasma level (human, in vivo, po, 500 mg): 124 ± 24 relative chromatographic area | observed Tmax: time required to reach Cmax (human, in vivo, po, 500 mg): 1.1 ± 0.4 h | mean chromatographic area in plasma, T0.5 (in vivo): 56 | mean chromatographic area in plasma, T1 (in vivo): 123 | mean chromatographic area in plasma, T2 (in vivo): 35 | mean chromatographic area in plasma, T4 (in vivo): 0 | mean chromatographic area in plasma, T6 (in vivo): 0 | mean chromatographic area in plasma, T8 (in vivo): 0 | mean chromatographic area in plasma, T10 (in vivo): 0

homovanillyl alcohol glucuronide [homovanillyl alcohol glucuronide isomer 1]
mean chromatographic area in plasma, T0.5 (0.5 h after O. europaea extract, listed as homovanillic alcohol glucuronide isomer 1): 274 | mean chromatographic area in plasma, T1 (1 h after O. europaea extract, listed as homovanillic alcohol glucuronide isomer 1): 503 | mean chromatographic area in plasma, T2 (2 h after O. europaea extract, listed as homovanillic alcohol glucuronide isomer 1): 372 | mean chromatographic area in plasma, T4 (4 h after O. europaea extract, listed as homovanillic alcohol glucuronide isomer 1): 183 | mean chromatographic area in plasma, T6 (6 h after O. europaea extract, listed as homovanillic alcohol glucuronide isomer 1): 66 | mean chromatographic area in plasma, T8 (8 h after O. europaea extract, listed as homovanillic alcohol glucuronide isomer 1): 26 | mean chromatographic area in plasma, T10 (10 h after O. europaea extract): 0 | Cmax: relative maximum plasma level [2]: 504 ± 154 relative chromatographic area | observed Tmax: time required to reach Cmax [2]: 1.1 ± 0.3 h

homovanillyl alcohol glucuronide [homovanillyl alcohol glucuronide isomer 2]
mean chromatographic area in plasma, T0.5 (0.5 h after O. europaea extract, listed as homovanillic alcohol glucuronide isomer 2): 242 | mean chromatographic area in plasma, T1 (1 h after O. europaea extract, listed as homovanillic alcohol glucuronide isomer 2): 677 | mean chromatographic area in plasma, T2 (2 h after O. europaea extract, listed as homovanillic alcohol glucuronide isomer 2): 704 | mean chromatographic area in plasma, T4 (4 h after O. europaea extract, listed as homovanillic alcohol glucuronide isomer 2): 365 | mean chromatographic area in plasma, T6 (6 h after O. europaea extract, listed as homovanillic alcohol glucuronide isomer 2): 165 | mean chromatographic area in plasma, T8 (8 h after O. europaea extract, listed as homovanillic alcohol glucuronide isomer 2): 61 | mean chromatographic area in plasma, T10 (10 h after O. europaea extract): 0 | Cmax: relative maximum plasma level [2]: 735 ± 257 relative chromatographic area | observed Tmax: time required to reach Cmax [2]: 1.6 ± 0.5 h

hydroxytyrosol glucuronide [hydroxytyrosol glucuronide isomer 1]
mean chromatographic area in plasma, T0.5 [1]: 724 | mean chromatographic area in plasma, T1 (1 h after O. europaea extract): 955 | mean chromatographic area in plasma, T2 (2 h after O. europaea extract): 463 | mean chromatographic area in plasma, T4 (4 h after O. europaea extract): 158 | mean chromatographic area in plasma, T6 (6 h after O. europaea extract): 61 | mean chromatographic area in plasma, T8 (8 h after O. europaea extract): 28 | mean chromatographic area in plasma, T10 (10 h after O. europaea extract): 0 | Cmax: relative maximum plasma level [2]: 1002 ± 411 relative chromatographic area | observed Tmax: time required to reach Cmax [2]: 0.9 ± 0.2 h

hydroxytyrosol sulfate [hydroxytyrosol sulfate isomer 1]
mean chromatographic area in plasma, T0.5 [1]: 280 | mean chromatographic area in plasma, T1 (1 h after O. europaea extract): 323 | mean chromatographic area in plasma, T2 (2 h after O. europaea extract): 178 | mean chromatographic area in plasma, T4 (4 h after O. europaea extract): 328 | mean chromatographic area in plasma, T6 (6 h after O. europaea extract): 118 | mean chromatographic area in plasma, T8 (8 h after O. europaea extract): 202 | mean chromatographic area in plasma, T10 (10 h after O. europaea extract): 45 | Cmax: relative maximum plasma level [2]: 593 ± 382 relative chromatographic area | observed Tmax: time required to reach Cmax [2]: 3 ± 3 h

kaempferol sulfate
Cmax: relative maximum plasma level (human, in vivo, po, 500 mg): 172 ± 102 relative chromatographic area | observed Tmax: time required to reach Cmax (human, in vivo, po, 500 mg): 1.1 ± 0.3 h | mean chromatographic area in plasma, T0.5 (in vivo): 25 | mean chromatographic area in plasma, T1 (in vivo): 165 | mean chromatographic area in plasma, T2 (in vivo): 59 | mean chromatographic area in plasma, T4 (in vivo): 0 | mean chromatographic area in plasma, T6 (in vivo): 0 | mean chromatographic area in plasma, T8 (in vivo): 0 | mean chromatographic area in plasma, T10 (in vivo): 0

oleuropein aglycone glucuronide [oleuropein aglycone glucuronide isomer 1]
Cmax: relative maximum plasma level (human, in vivo, po, 500 mg): 244 ± 128 relative chromatographic area | observed Tmax: time required to reach Cmax (human, in vivo, po, 500 mg): 0.8 ± 0.2 h | mean chromatographic area in plasma, T0.5 (in vivo): 186 | mean chromatographic area in plasma, T1 (in vivo): 202 | mean chromatographic area in plasma, T2 (in vivo): 29 | mean chromatographic area in plasma, T4 (in vivo): 0 | mean chromatographic area in plasma, T6 (in vivo): 0 | mean chromatographic area in plasma, T8 (in vivo): 0 | mean chromatographic area in plasma, T10 (in vivo): 0

oleuropein aglycone glucuronide [oleuropein aglycone glucuronide isomer 2]
observed Tmax: time required to reach Cmax (human, in vivo, po, 500 mg): 0.9 ± 0.2 h | mean chromatographic area in plasma, T1 (in vivo): 482 | mean chromatographic area in plasma, T2 (in vivo): 197 | mean chromatographic area in plasma, T4 (in vivo): 24 | mean chromatographic area in plasma, T6 (in vivo): 0 | mean chromatographic area in plasma, T8 (in vivo): 0 | mean chromatographic area in plasma, T10 (in vivo): 0
